In paper PMC3509269 (The Analyst, 2012):

Tested on: Calf thymus DNA
Type: biochemical
Details: 0.2 mM, negative control, under the assay conditions (Fig. S8)

Q: Which “SWV peak increases (DNA damage signal)” value does the source give for `C1CCOC1` [THF] here?
A: did not show SWV peak increases
